In assay [1] the target is GST-PPARG-LBD (Homo sapiens (Human), UniProt P37231). Nature of the assay: Lanthascreen PPARG competitive binding assay (Invitrogen, TR-FRET). The following applies: Lanthascreen competitive binding; NA = not active; inc = incomplete curve; read-out: IC50 (nM) Lantha. The essentials:
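TR-FRET competitive binding of GST-PPARG-LBD with 5 nM Tb-GST-antibody and 5 nM Fluormone Pan-PPAR Green tracer, in TR-FRET buffer C. Compound serially diluted from 10 μM, 2 h dark incubation, in triplicate. Readout is 520/490 nm emission ratio (340 nm excitation), expressed as fold change over 2% DMSO control.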
(In general: TR-FRET usually uses a lanthanide donor and a delayed reading to cut background.)

In assay [2] the target is Gal-4-PPAR (human PPAR LBD fused to GAL4 DNA-binding domain) (Homo sapiens (Human), UniProt P37231). The assay can be described thus: GAL4-PPARG LBD / UAS-luciferase transactivation assay in HEK 293T cells. It counts as cell-based.
[3] abbreviates: GAL4 transactivation, HEK 293T cells; NA = not active; read-out: EC50 (nM) GAL4.
[4] abbreviates: HEK-293T, 18 h; read-out: % transactivation at 10 μM (GAL4).
Setting [5] is: HEK-293T, 18 h, read-out: % transactivation at 10 μM (GAL4).

In general, IC50 refers to the concentration needed to halve the response being measured. A word on the EC50: it is the concentration giving half of the maximal effect.

Like-named read-outs stand apart in the source and are kept apart here.

Sequence of GST-PPARG-LBD (P37231 238-503): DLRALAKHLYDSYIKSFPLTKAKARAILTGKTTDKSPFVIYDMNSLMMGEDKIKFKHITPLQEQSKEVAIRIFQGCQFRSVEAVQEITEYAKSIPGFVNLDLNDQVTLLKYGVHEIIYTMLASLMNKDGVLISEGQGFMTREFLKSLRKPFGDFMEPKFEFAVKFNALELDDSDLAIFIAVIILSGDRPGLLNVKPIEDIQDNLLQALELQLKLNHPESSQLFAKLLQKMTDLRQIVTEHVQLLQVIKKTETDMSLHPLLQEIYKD
Sequence of Gal-4-PPAR (human PPAR LBD fused to GAL4 DNA-binding domain) (P37231 238-503): as above

In the case of `Cc1c(C)n(Cc2ccc(-c3ccccc3C(=O)O)cc2)c2ccc(C(=O)N[C@@H](C)c3ccccc3C(F)(F)F)cc12` [Example 208, (S)-4′-((2,3-dimethyl-5-((1-(2-(trifluoromethyl)phenyl)ethyl)carbamoyl)-1H-indol-1-yl)methyl)-[1,1′-biphenyl]-2-carboxylic acid], the 50% inhibitory concentration (IC50) in assay [1] amounted to 22 nM. In assay [2] (setting [3]), the EC50 is 369 nM. Also, the activation at 10 µM in assay [2] (setting [4]) stood at 20%.
On to `Cc1c(C)n(Cc2ccc(-c3ccccc3C(=O)O)cc2)c2ccc(C(=O)N[C@H](C)c3ccc(C(F)(F)F)cc3C(F)(F)F)cc12` [Example 209, (R)-4′-((5-((1-(2,4-bis(trifluoromethyl)phenyl)ethyl)carbamoyl)-2,3-dimethyl-1H-indol-1-yl)methyl)-[1,1′-biphenyl]-2-carboxylic acid], for which the IC50 in assay [1] stood at 11 nM. For the same compound, the EC50 in assay [2] (setting [3]) amounted to 211 nM. Further, the activation at 10 µM in assay [2] (setting [4]) was found to be 10%.
Turning to `Cc1c(C)n(Cc2ccc(-c3ccccc3C(=O)O)cc2)c2ccc(C(=O)N[C@@H](C)c3ccc(C(F)(F)F)cc3C(F)(F)F)cc12` [Example 210, (S)-4′-((5-((1-(2,4-bis(trifluoromethyl)phenyl)ethyl)carbamoyl)-2,3-dimethyl-1H-indol-1-yl)methyl)-[1,1′-biphenyl]-2-carboxylic acid], the IC50 in assay [1] turned out to be 241 nM. For the same compound, the EC50 in assay [2] (setting [3]) was 1290 nM. Further, in assay [2] (setting [4]), the activation at 10 µM is 20%.
Consider `Cc1ccc(F)c([C@H](C)NC(=O)c2ccc3c(c2)c(C)c(C)n3Cc2ccc(-c3ccccc3C(=O)O)cc2)c1` [Example 211, (S)-4′-((5-((1-(2-fluoro-5-methylphenyl)ethyl)carbamoyl)-2,3-dimethyl-1H-indol-1-yl)methyl)-[1,1′-biphenyl]-2-carboxylic acid], for which the 50% inhibitory concentration (IC50) in assay [1] came out at 6 nM. Besides, the EC50 in assay [2] (setting [3]) worked out at 251 nM. Also, the activation at 10 µM in assay [2] (setting [4]) was determined as 20%.
Take `Cc1c(C)n(Cc2ccc(-c3ccccc3C(=O)O)cc2)c2ccc(C(=O)N[C@@H](C)C3CCCCC3)cc12` [Example 212, (S)-4′-((5-((1-cyclohexylethyl)carbamoyl)-2,3-dimethyl-1H-indol-1-yl)methyl)-[1,1′-biphenyl]-2-carboxylic acid]: the IC50 in assay [1] came out at 4 nM. Besides, in assay [2] (setting [3]), the EC50 was 209 nM. Moreover, the activation at 10 µM in assay [2] (setting [4]) amounted to 20%.
The like results for `Cc1c(C)n(Cc2ccc(-c3ccccc3C(=O)O)cc2)c2ccc(C(=O)N[C@H](C)C3COc4ccccc4O3)cc12` (stereo partly drawn) [Example 213, 4′-((5-(((1R)-1-(2,3-dihydrobenzo[b][1,4]dioxin-2-yl)ethyl)carbamoyl)-2,3-dimethyl-1H-indol-1-yl)methyl)-[1,1′-biphenyl]-2-carboxylic acid] were, in that order, 3 nM, 672 nM and 40%.
Take `Cc1c(C)n(Cc2ccc(-c3ccccc3C(=O)O)cc2)c2ccc(C(=O)N[C@@H](C)C3COc4ccccc4O3)cc12` (stereo partly drawn) [Example 214, 4′-((5-(((1S)-1-(2,3-dihydrobenzo[b][1,4]dioxin-2-yl)ethyl)carbamoyl)-2,3-dimethyl-1H-indol-1-yl)methyl)-[1,1′-biphenyl]-2-carboxylic acid]: in assay [1], the concentration for half-maximal inhibition (IC50) was 25 nM. Moreover, the EC50 in assay [2] (setting [3]) is 2350 nM. In addition, the activation at 10 µM in assay [2] (setting [4]) is 20%.
On to `Cc1c(C)n(Cc2ccc(-c3ccccc3C(=O)O)cc2)c2ccc(C(=O)N[C@@H](C)c3c(F)cncc3F)cc12` [Example 216, (S)-4′-((5-((1-(3,5-difluoropyridin-4-yl)ethyl)carbamoyl)-2,3-dimethyl-1H-indol-1-yl)methyl)-[1,1′-biphenyl]-2-carboxylic acid], for which the IC50 in assay [1] was determined as 33 nM. Moreover, in assay [2] (setting [3]), the EC50 came to 884 nM. In addition, the activation at 10 µM in assay [2] (setting [4]) stood at 30%.
The like results for `Cc1c(C)n(Cc2ccc(-c3ccccc3C(=O)O)cc2)c2ccc(C(=O)N[C@@H](C)c3ccc(C(F)(F)F)nc3)cc12` [Example 217, (S)-4′-((2,3-dimethyl-5-((1-(6-(trifluoromethyl)pyridin-3-yl)ethyl)carbamoyl)-1H-indol-1-yl)methyl)-[1,1′-biphenyl]-2-carboxylic acid] were, in that order, 230 nM, 2800 nM and 15%.
In the case of `Cc1c(C)n(Cc2ccc(-c3ccccc3C(=O)O)cc2)c2ccc(C(=O)N[C@@H](C)c3ccc4c(c3)CCO4)cc12` [Example 218, (S)-4′-((5-((1-(2,3-dihydrobenzofuran-5-yl)ethyl)carbamoyl)-2,3-dimethyl-1H-indol-1-yl)methyl)-[1,1′-biphenyl]-2-carboxylic acid], the IC50 in assay [1] turned out to be 223 nM. In assay [2] (setting [3]), the EC50 stood at 2550 nM. In addition, the activation at 10 µM in assay [2] (setting [4]) was 45%.
With `Cc1c(C)n(Cc2ccc(-c3ccccc3C(=O)O)cc2)c2ccc(C(=O)N[C@@H](C)c3cc(Cl)cc(Cl)c3)cc12` [Example 219, (S)-4′-((5-((1-(3,5-dichlorophenyl)ethyl)carbamoyl)-2,3-dimethyl-1H-indol-1-yl)methyl)-[1,1′-biphenyl]-2-carboxylic acid], the IC50 in assay [1] was 15 nM. Moreover, the EC50 in assay [2] (setting [3]) turned out to be 155 nM. The activation at 10 µM in assay [2] (setting [4]) was 30%.
Take `Cc1c(C)n(Cc2ccc(-c3ccccc3C(=O)O)cc2)c2ccc(C(=O)N[C@@H](C)c3ccc(Cl)c(Cl)c3)cc12` [Example 220, (S)-4′-((5-((1-(3,4-dichlorophenyl)ethyl)carbamoyl)-2,3-dimethyl-1H-indol-1-yl)methyl)-[1,1′-biphenyl]-2-carboxylic acid]: the IC50 in assay [1] was determined as 10 nM. Moreover, in assay [2] (setting [3]), the EC50 is 142 nM. In addition, the activation at 10 µM in assay [2] (setting [4]) is 30%.
Turning to `Cc1c(C)n(Cc2ccc(-c3ccccc3C(=O)O)cc2)c2ccc(C(=O)N[C@@H](C)c3cc(C(F)(F)F)ccc3F)cc12` [Example 221, (S)-4′-((5-((1-(2-fluoro-5-(trifluoromethyl)phenyl)ethyl)carbamoyl)-2,3-dimethyl-1H-indol-1-yl)methyl)-[1,1′-biphenyl]-2-carboxylic acid], the IC50 in assay [1] was 11 nM. For the same compound, the EC50 in assay [2] (setting [3]) amounted to 156 nM. Also, the activation at 10 µM in assay [2] (setting [4]) amounted to 20%.
For `COc1cc(C(F)(F)F)ccc1[C@H](C)NC(=O)c1ccc2c(c1)c(C)c(C)n2Cc1ccc(-c2ccccc2C(=O)O)cc1` [Example 223, (S)-4′-((5-((1-(2-methoxy-4-(trifluoromethyl)phenyl)ethyl)carbamoyl)-2,3-dimethyl-1H-indol-1-yl)methyl)-[1,1′-biphenyl]-2-carboxylic acid], the IC50 in assay [1] was 73 nM. For the same compound, the EC50 in assay [2] (setting [3]) is 676 nM. In addition, the activation at 10 µM in assay [2] (setting [4]) came out at 10%.
For the compound `COc1cc(C(F)(F)F)ccc1[C@@H](C)NC(=O)c1ccc2c(c1)c(C)c(C)n2Cc1ccc(-c2ccccc2C(=O)O)cc1` [Example 224, (R)-4′-((5-((1-(2-methoxy-4-(trifluoromethyl)phenyl)ethyl)carbamoyl)-2,3-dimethyl-1H-indol-1-yl)methyl)-[1,1′-biphenyl]-2-carboxylic acid], the IC50 in assay [1] was found to be 2 nM. Also, the EC50 in assay [2] (setting [3]) was determined as 86 nM. The activation at 10 µM in assay [2] (setting [4]) came to 20%.
As to `CCc1ccc([C@H](C)NC(=O)c2ccc3c(c2)c(C)c(C)n3Cc2ccc(-c3ccccc3C(=O)O)cc2)cc1` [Example 225, (S)-4′-((5-((1-(4-ethylphenyl)ethyl)carbamoyl)-2,3-dimethyl-1H-indol-1-yl)methyl)-[1,1′-biphenyl]-2-carboxylic acid], the IC50 in assay [1] came out at 43 nM. Also, the EC50 in assay [2] (setting [3]) was 1130 nM. For the same compound, in assay [2] (setting [4]), the activation at 10 µM came out at 20%.
Regarding `Cc1cc(Cl)ccc1[C@H](C)NC(=O)c1ccc2c(c1)c(C)c(C)n2Cc1ccc(-c2ccccc2C(=O)O)cc1` [Example 226, (S)-4′-((5-((1-(4-chloro-2-methylphenyl)ethyl)carbamoyl)-2,3-dimethyl-1H-indol-1-yl)methyl)-[1,1′-biphenyl]-2-carboxylic acid], the IC50 in assay [1] is 11 nM. Moreover, the EC50 in assay [2] (setting [3]) stood at 172 nM. Moreover, the activation at 10 µM in assay [2] (setting [4]) amounted to 20%.
As for `Cc1c(C)n(Cc2ccc(-c3ccccc3C(=O)O)cc2)c2ccc(C(=O)N[C@@H](C)c3ccc(F)cc3C(F)(F)F)cc12` [Example 227, (S)-4′-((5-((1-(4-fluoro-2-(trifluoromethyl)phenyl)ethyl)carbamoyl)-2,3-dimethyl-1H-indol-1-yl)methyl)-[1,1′-biphenyl]-2-carboxylic acid], the IC50 in assay [1] came out at 36 nM. In assay [2] (setting [3]), the EC50 worked out at 173 nM. In addition, in assay [2] (setting [5]), the activation at 10 µM was determined as 20%.
In the case of `Cc1c(C)n(Cc2ccc(-c3ccccc3C(=O)O)cc2)c2ccc(C(=O)N[C@@H](C)c3ccc(C(F)(F)F)c(F)c3)cc12` [Example 228, (S)-4′-((5-((1-(3-fluoro-4-(trifluoromethyl)phenyl)ethyl)carbamoyl)-2,3-dimethyl-1H-indol-1-yl)methyl)-[1,1′-biphenyl]-2-carboxylic acid], the IC50 in assay [1] came to 53 nM. The EC50 in assay [2] (setting [3]) was determined as 1060 nM. Also, the activation at 10 µM in assay [2] (setting [4]) was 15%.
For `Cc1c(C)n(Cc2ccc(-c3ccccc3C(=O)O)cc2)c2ccc(C(=O)N[C@@H](C)c3cccc(F)c3F)cc12` [Example 229, (S)-4′-((5-((1-(2,3-difluorophenyl)ethyl)carbamoyl)-2,3-dimethyl-1H-indol-1-yl)methyl)-[1,1′-biphenyl]-2-carboxylic acid], the IC50 in assay [1] came to 9 nM. Besides, the EC50 in assay [2] (setting [3]) was 354 nM. In assay [2] (setting [4]), the activation at 10 µM stood at 30%.
Regarding `Cc1c(C)n(Cc2ccc(-c3ccccc3C(=O)O)cc2)c2ccc(C(=O)N[C@@H](C)c3cccc(C(F)(F)F)c3Cl)cc12` [Example 230, (S)-4′-((5-((1-(2-Chloro-3-(trifluoromethyl)phenyl)ethyl)carbamoyl)-2,3-dimethyl-1H-indol-1-yl)methyl)-[1,1′-biphenyl]-2-carboxylic acid], the IC50 in assay [1] amounted to 103 nM. The EC50 in assay [2] (setting [3]) came to 709 nM. Besides, in assay [2] (setting [5]), the activation at 10 µM was 20%.

These data come from patent publication US8957093B2, “N-biphenylmethylindole modulators of PPARG” (The Scripps Research Institute, priority 2011, dated 2015).
